Reference: PMC11944037, “Investigating the Mechanism of Action of Ipomoea pes-caprae in the Treatment of Rheumatoid Arthritis Based on Serum Metabolomics and Network Pharmacology” (Marine Drugs, 2025)
Where two headings read alike, the source gives them in different places.

Key:
[1] = Identification and relative content of absorbed components of IPE in plasma (UPLC-MS); assay type: in vivo, SD rats; details: oral IPE 13.5 g/kg, peak area normalization
Excerpt: A total of 83 male SD rats, SPF grade, six weeks old, body mass (200 ± 10 g), were purchased from Hunan SJA Laboratory Animal Co., Ltd. (Haodan Science and Technology Park, No.99 Changchong Road, Longping High-tech Park, Furong District, Changsha City, China), Animal License No. SCXK (Hunan) 2019-0004. The animal experiments were approved by the Animal Ethics Committee of Guangxi University of Chinese Medicine (Approval No. DW20220220-117). After one week of adaptive feeding, the animals were randomly divided into eight groups of 10 animals according to weight stratification: normal control group (Con), natural bovine type II collagen model group (CII), wind-dampness cold bi-syndrome model group (WCM), wind-dampness heat bi-syndrome model group (WHM), wind-dampness cold bi-syndrome + Ipomoea pes-caprae group (WCM + IPE), wind-dampness heat bi-syndrome + Ipomoea pes-caprae group (WHM + IPE), wind-dampness cold bi-syndrome + Duhuo group (WCM + DH) (Duhuo formula granules), and wind-dampness heat bi-syndrome + Fangji group (WHM + FJ) (Fangji formula granules). Another three rats were randomly selected as the normal administration group (Con + IPE), and the absorbed components in plasma were studied in vivo. The oral dose of IPE was 13.5 g/kg, and the dosing volume was 20 mL/kg. The oral doses of Duhuo formula granules and Fangji formula granules were 9.0 g/kg, with a dosing volume of 20 mL/kg for each. The blank control group and each model group were administered an equal volume of distilled water by oral gavage. The administration was performed once daily for 28 consecutive days.
Rats were fasted for 12 h before administration but not deprived of water, then weighed and administered. A total of 0.2 mL of blood was collected from the orbit at 5 min, 30 min, 45 min, 1 h, 2 h, 4 h, 6 h, 8 h, and 12 h after the end of gavage administration and placed in a centrifuge tube with a preservative anticoagulant (1.5% EDTA aqueous solution, 1.5 mL). The samples were centrifuged at 4 °C for 10 min at 4000 rpm to separate the plasma. The supernatant was transferred to a new centrifuge tube and stored in a refrigerator at −80 °C for the detection of absorbed components in plasma and pharmacokinetics. In addition, after the end of the entire experimental cycle, blood was taken from the abdominal aorta of the rat. The blood samples were kept at room temperature for 2 h, then centrifuged at 4 °C at 3000 rpm for 10 min, and the upper serum was aspirated. The samples were stored at −80 °C in a low-temperature refrigerator for TNF-α, IL-6 detection, and metabolomics detection.
Ultra-high liquid chromatograph (model: ExionLC AC, manufacturer: SCIEX Corporation, USA) and QTOF mass spectrometer (model: X500R, manufacturer: SCIEX Corporation, USA), Waters ACQUITY UPLC HSS T3 C18 column (1.8 μm, 2.1 × 100 mm) was used as the mobile phase for the separation of 0.1% formic acid aqueous solution (A)-acetonitrile (B) as a mobile phase, gradient elution (0~30 min, 5%~95% B); volume flow rate of 0.4 mL/min; injection volume: 3 μL, column temperature: 40 °C. Ion source: dual-spray TurboV, positive and negative ion scanning, TOF MS scanning range of m/z 100~1500, positive/negative ion source voltage of […], ion source temperature: 600 °C, GS1: 55 psi, GS2: 55 psi, air curtain gas pressure: 35 psi, parent ion collision energy: ±10 V, de-cluster voltage (DP): ±80 V, daughter ion collision energy (CE): ±35 V.
Expressed as mean ± standard deviation ( x¯ ± s) and processed by GraphPad Prism 8.4.3 statistical software, statistical comparisons were evaluated by one-way ANOVA, followed by the Student–Newman–Keuls post hoc test. The difference was statistically significant with p < 0.05 and p < 0.01. […]

[2] = tested on: RA-FLS; design: method as in PMID 28463788; details: by blocking phosphorylation of IκB and IκB kinases; cited from earlier work
[3] = Pharmacokinetics of absorbed components of IPE in plasma; assay type: in vivo, SD rats; details: component of orally given IPE, n = 6; for MRT last: read-out: MRT0~t
Excerpt: (Haodan Science and Technology Park, No.99 Changchong Road, Longping High-tech Park, Furong District, Changsha City, China), Animal License No. SCXK (Hunan) 2019-0004. The animal experiments were approved by the Animal Ethics Committee of Guangxi University of Chinese Medicine (Approval No. DW20220220-117). After one week of adaptive feeding, the animals were randomly divided into eight groups of 10 animals according to weight stratification: normal control group (Con), natural bovine type II collagen model group (CII), wind-dampness cold bi-syndrome model group (WCM), wind-dampness heat bi-syndrome model group (WHM), wind-dampness cold bi-syndrome + Ipomoea […] group ([…]), wind-dampness heat bi-syndrome + Ipomoea […] group ([…]), wind-dampness cold bi-syndrome + Duhuo group (WCM + DH) (Duhuo formula granules), and wind-dampness heat bi-syndrome + Fangji group (WHM + FJ) (Fangji formula granules). […] The oral dose of IPE was 13.5 g/kg, and the dosing volume was 20 mL/kg. The oral doses of Duhuo formula granules and Fangji formula granules were 9.0 g/kg, with a dosing volume of 20 mL/kg for each. The blank control group and each model group were administered an equal volume of distilled water by oral gavage. […] The supernatant was transferred to a new centrifuge tube and stored in a refrigerator at -80 °C for the detection of absorbed components in plasma and pharmacokinetics. In addition, after the end of the entire experimental cycle, blood was taken from the abdominal aorta of the rat. The blood samples were kept at room temperature for 2 h, then centrifuged at 4 °C at 3000 rpm for 10 min, and the upper serum was aspirated. The samples were stored at -80 °C in a low-temperature refrigerator for TNF-α, IL-6 detection, and metabolomics detection. In order to further elaborate on the in vivo pharmacokinetic characteristics of IPE, this study selected caffeic acid, protocatechuic acid, and ferulic acid as the research objects to explore their in vivo absorption and metabolism characteristics. In addition, syringic acid was chosen as the internal standard. […] Use A as 0.1% acetic acid aqueous solution (A) acetonitrile (B) as the mobile phase, with gradient elution (0-6 min, 5-20% B; 6-10 min, 20-40% B), a volume flow of 0.4 mL/min, a column temperature of 40 °C, and an injection volume of 3 μL. Ion source: electrospray ion source (ESI), negative ion mode collection, simultaneous measurement by multiple reaction monitoring (MRM) mode.

[4] = tested on: LTB4; design: method as in PMID 27826169; details: cited from earlier work
[5] = tested on: JAK/STAT pathway; details: modulating CRP, RF, TNF-α, TGF-β levels; cited from earlier work
[6] = tested on: NF-κB and Akt/mTOR signaling pathways; design: method as in PMID 32510258; details: cited from earlier work
[7] = tested on: tyrosine kinases on fibroblast-like synoviocytes (FLS); details: cited from earlier work
[8] = male, SD, rat, plasma, po, 13.5 g/kg, Con + IPE group
[9] = male, SD, rat, plasma, po, 13.5 g/kg, Con + IPE group, read-out: Tmax
[10] = male, SD, rat, plasma, po, 13.5 g/kg, WCM + IPE group
[11] = male, SD, rat, plasma, po, 13.5 g/kg, WCM + IPE group, read-out: Tmax
[12] = male, SD, rat, plasma, po, 13.5 g/kg, WHM + IPE group
[13] = male, SD, rat, plasma, po, 13.5 g/kg, WHM + IPE group, read-out: Tmax

| SMILES | Relative Content of absorbed component in plasma ([1]; Con + IPE group (normal rats)) | Relative Content of absorbed component in plasma ([1]; WCM + IPE group) | Relative Content of absorbed component in plasma ([1]; WHM + IPE group) | AUC(0-t) [3, 8] | Cmax [3, 8] | half-life [3, 8] | MRT last [3, 8] | Tmax [3, 9] | AUC(0-t) [3, 10] | Cmax [3, 10] | half-life [3, 10] | MRT last [3, 10] | AUC(0-t) [3, 12] | Cmax [3, 12] | half-life [3, 12] | MRT last [3, 12] | Tmax [3, 13] | further results |
| --- | --- | --- | --- | --- | --- | --- | --- | --- | --- | --- | --- | --- | --- | --- | --- | --- | --- | --- |
| O=C(O)/C=C/c1ccc(O)c(O)c1 [Caffeic acid] | 33.04% | 30.2% | 34.24% | 2080 ± 349 ng·h/mL | 703 ± 190 ng/mL | 4.51 ± 3.03 h | 4.18 ± 1.82 h | 0.85 ± 0.22 h | 1130 ± 163 ng·h/mL | 342 ± 123 ng/mL | 2.82 ± 1.07 h | 3.32 ± 0.35 h | 2300 ± 410 ng·h/mL | 709 ± 194 ng/mL | 3.82 ± 2.55 h | 4.53 ± 1.34 h | 0.93 ± 0.12 h | IL-6 and TNF-α, inflammatory response in RA-FLS [2]: inhibits IL-6 and TNF-α; Tmax [3, 11]: 0.62 ± 0.14 h |
| O=c1ccc2ccccc2o1 [Coumarin] |  | 1.77% |  |  |  |  |  |  |  |  |  |  |  |  |  |  |  |  |
| O=c1ccc2cc(O)c(O)cc2o1 [Esculetine] | 0.39% | 0.5% | 0.58% |  |  |  |  |  |  |  |  |  |  |  |  |  |  | LTB4 levels [4]: decreasing LTB4 levels |
| COc1cc(/C=C/C(=O)O)ccc1O [Ferulic acid] | 17.23% | 20.09% | 17.71% | 60.6 ± 27.3 ng·h/mL | 35.8 ± 10.9 ng/mL | 1.51 ± 0.51 h | 1.3 ± 0.28 h | 0.45 ± 0.1 h | 34.9 ± 22.6 ng·h/mL | 26.1 ± 11.6 ng/mL | 1.02 ± 0.46 h | 1.05 ± 0.35 h | 104 ± 41.2 ng·h/mL | 38.8 ± 16.2 ng/mL | 1.31 ± 0.32 h | 2.27 ± 0.42 h | 0.7 ± 0.27 h | JAK/STAT pathway-mediated RA [5]: inhibits JAK/STAT pathway-mediated RA; Tmax ([3]; WCM + IPE group): 0.33 ± 0.12 h |
| COc1cc2oc(=O)ccc2cc1O [Isoscopoletin] | 2.7% | 7.8% | 5% |  |  |  |  |  |  |  |  |  |  |  |  |  |  |  |
| COC(=O)/C=C/c1ccc(O)c(O)c1 [Methyl caffeate acid] | 1.57% | 2.45% | 2.02% |  |  |  |  |  |  |  |  |  |  |  |  |  |  |  |
| O=C(O)c1ccc(O)c(O)c1 [Protocatechuic acid] | 1.04% | 1.14% | 0.84% | 504 ± 177 ng·h/mL | 269 ± 90.2 ng/mL | 1.93 ± 1.01 h | 1.9 ± 0.42 h | 0.66 ± 0.25 h | 194 ± 100 ng·h/mL | 121 ± 77.4 ng/mL | 1.46 ± 0.32 h | 1.59 ± 0.38 h | 307 ± 98.3 ng·h/mL | 145 ± 53.2 ng/mL | 1.25 ± 0.36 h | 1.83 ± 0.24 h | 0.62 ± 0.14 h | secretion of MMP-3, MMP-13, TNF-α, IL-1β, and IL-6 [6]: inhibits the secretion; Tmax [3, 11]: 0.41 ± 0.12 h |
| O=Cc1ccc(O)c(O)c1 [Protocatechuic aldehyde] |  | 1.68% |  |  |  |  |  |  |  |  |  |  |  |  |  |  |  |  |
| COc1cc2ccc(=O)oc2cc1O [Scopoletin] | 5.83% | 4.71% | 5.56% |  |  |  |  |  |  |  |  |  |  |  |  |  |  | NF-κB signaling in fibroblast-like synoviocytes [7]: block NF-κB signaling |
| O=C(O)c1ccc(O)cc1 [p-Hydroxybenzoic acid] | 38.2% | 29.65% | 34.04% |  |  |  |  |  |  |  |  |  |  |  |  |  |  |  |
